Source: patent US6660742B2, “Compositions and methods of the use thereof achiral analogues of CC-1065 and the duocarmycins” (priority 2000, dated 2003)
pIC50: −log10 of the molar value. “And” between values parts separate entries of the source, which are not always exact repeats. Equal entries are not always repeated. Where two headings read alike, the source gives them in different places.

How the values were obtained:
HL-60(TB) = assay type: cell-based
COLO 205 = test: NCI screen, COLO 205 (Colon Cancer); assay type: cell-based, human
Description: (§1) The compounds of this invention were also tested against the panel of 60 human cancer cell lines at the National Cancer Institute, Bethesda, Md. […] The cytrotoxicity studies were conducted using a 48 hour exposure, and measuring the optical density of sulforhodamide B-derived color.

A498 = test: NCI screen, A498 (Renal Cancer); assay type: cell-based, human
Description: as §1

SF-295 = test: NCI screen, SF-295 (CNS Cancer)
Description: as §1

SK-MEL-2 = test: NCI screen, SK-MEL-2 (Melanoma)
Description: as §1

SK-MEL-5 = test: NCI screen, SK-MEL-5 (Melanoma)
Description: as §1

HS 578T [1] = test: NCI screen, HS 578T (Breast Cancer)
Description: (§2) The compounds of this invention were also tested against the panel of 60 human cancer cell lines at the National Cancer Institute, Bethesda, Md. (44). The cytrotoxicity studies were conducted using a 48 hour exposure, and measuring the optical density of sulforhodamide B-derived color.

NCI-H23 = test: NCI screen, NCI-H23 (Non-Small Cell Lung Cancer)
Description: as §1

NCI-H522 = test: NCI screen, NCI-H522 (Non-Small Cell Lung Cancer)
Description: as §1

[2] = test system: PC3 (human prostate cancer cells); test: SRB cytotoxicity on PC3 cells; assay type: cell-based
Description: Cells were seeded in 96-well microtiter plates at densities of 1000 cells/well. The optimal seeding density was determined to ensure exponential growth in control wells throughout the experimental period and to obtain a linear relationship between absorbance at 492 nm and cell number when analyzed by the sulforhodamine B (SRB) assay (43). 24 hours after seeding the cells were incubated for 1 hour or continuously for 3 days with the drugs (concentration range 0.01 to 500 μM). The cells were washed once and then incubated in drug free medium for 6 days. At the end of the incubation cell growth was determined by the SRB assay, which quantifies viable cells by measuring their total cellular protein content. […] Similar studies were conducted against the growth of PC3 (human prostate cancer cells) and MCF-7 (human breast cancer cells).

L1210 leukemia cells = test: MTT cytotoxicity on L1210 cells; assay type: cell-based, murine; details: 72 hr incubation
Description: The P815 and L1210 cell lines were obtained from American Type Tissue Culture Collection (ATCC). The cell lines were grown in Delbecco's Modified Eagle Medium (DMEM, Atlanta Biologicals) supplemented with 10% fetal bovine serum, Hepes Buffer (2 mM, Mediatech Cellgro, 25-060-Cl), L-Glutamine (2 mM, Mediatech Cellgro), and penicillin/streptomycin (50,000 units penicillin, 50,000 […], Atlanta Biologicals). Cells were maintained at 37° C. in a 5% humidified CO2 atmosphere. Cultured cells were counted using a hemocytometer and resuspended in fresh DMEM at a concentration of 8×10^5 cells/mL. This cell suspension (100 μL) was added to 96 well flat -bottom cell culture plates. At this concentration, 80,000 cells were seeded in each well. Drug solutions (dissolved in DMSO and diluted in DMEM) were added to each well (5 μL/well) resulting in final concentrations ranging from 1×10^−4 to 1×10^−12 M. Quadruplicate wells were prepared for each drug concentration. The plates were incubated for 72 hr at 37° C. in a 5% CO2 atmosphere. MTT (3-(4,5-dimethylthiazol-2-yl)-2,5-diphenyl tetrazolium bromide) was dissolved in PBS (5 mg/ml). After the indicated cell incubation period, 10 μL of this stock MTT solution was added to each well and the plates were further incubated for 4 h at 37° C. in a 5% CO2 atmosphere. […] The contents of the well were mixed thoroughly by pipetting the cell suspension up and down and the plates were allowed to sit at room temperature for 15 min in order to allow for full development of the purple color. The plates were read on a Dynatech Plate Reader, utilizing Dynex Revelation 3.2 software, with a test wavelenth of 570 nm and a reference wavelength of 630 nm.

HS 578T [3] = test system: HS 578T
Description: as §2

[4] = Log10 Concentration −4.3, 48 hour exposure
[5] = Log10 Concentration −5.3, 48 hour exposure
[6] = Log10 Concentration −6.3, 48 hour exposure
[7] = Log10 Concentration −7.3, 48 hour exposure
[8] = Log10 Concentration −8.3, 48 hour exposure

Description for BT-549: as §2
Description for DU-145: as §1
Description for MCF7: as §1
Description for MOLT-4: as §1
Description for OVCAR-4: as §1
Description for RXF 393: as §1
Description for SF-539: as §1
Description for UO-31: as §1

COC(=O)c1[nH]c2c(O)cc(NC(=O)c3cc4cc(OC)c(OC)c(OC)c4[nH]3)c(CCCl)c2c1C(=O)OC [Compound 22, Dimethyl 4-(2-chloroethyl)-7-hydroxy-5-(5,6,7-trimethoxyindole-2-carboxamido)indole-2,3-dicarboxylate]
TGI (HL-60(TB); 48 hour exposure): >5.00E−05 Molar | Percent Growth (HL-60(TB); [4]): 3% | Percent Growth (HL-60(TB); [5]): 9% | Percent Growth (HL-60(TB); [6]): 10% | Percent Growth (HL-60(TB); [7]): 54% | Percent Growth (HL-60(TB); [8]): 85% | TGI (COLO 205; 48 hour exposure): >5.00E−05 Molar | Percent Growth (COLO 205; [4]): 20% | Percent Growth (COLO 205; [5]): 23% | Percent Growth (COLO 205; [6]): 31% | Percent Growth (COLO 205; [7]): 88% | Percent Growth (COLO 205; [8]): 95% | TGI (A498; 48 hour exposure): 5.15E−06 Molar | Percent Growth (A498; [4]): −82% | Percent Growth (A498; [5]): 1% | Percent Growth (A498; [6]): 5% | Percent Growth (A498; [7]): 98% | Percent Growth (A498; [8]): 95% | TGI (MDA-MB-231/ATCC; MDA-NB-231/ATCC, 48 hour exposure): > 5.00E−05 Molar | Percent Growth (MDA-MB-231/ATCC; MDA-NB-231/ATCC, Log10 Concentration −4.3, 48 hour exposure): 10% | Percent Growth (MDA-MB-231/ATCC; MDA-NB-231/ATCC, Log10 Concentration −5.3, 48 hour exposure): 12% | Percent Growth (MDA-MB-231/ATCC; MDA-NB-231/ATCC, Log10 Concentration −6.3, 48 hour exposure): 16% | Percent Growth (MDA-MB-231/ATCC; MDA-NB-231/ATCC, Log10 Concentration −7.3, 48 hour exposure): 89% | Percent Growth (MDA-MB-231/ATCC; MDA-NB-231/ATCC, Log10 Concentration −8.3, 48 hour exposure): 99% | Percent Growth (SF-295): 1% | TGI (SF-295; SF-295, 48 hour exposure): >5.00E−05 Molar | Percent Growth (SF-295; SF-295, Log10 Concentration −5.3, 48 hour exposure): 11% | Percent Growth (SF-295; SF-295, Log10 Concentration −6.3, 48 hour exposure): 14% | Percent Growth (SF-295; SF-295, Log10 Concentration −7.3, 48 hour exposure): 74% | Percent Growth (SF-295; SF-295, Log10 Concentration −8.3, 48 hour exposure): 106% | TGI (SK-MEL-2; 48 hour exposure): 1.69E−07 Molar | Percent Growth (SK-MEL-2; [4]): −87% | Percent Growth (SK-MEL-2; [5]): −74% | Percent Growth (SK-MEL-2; [6]): −78% | Percent Growth (SK-MEL-2; [7]): 87% | Percent Growth (SK-MEL-2; [8]): 89% | Percent Growth (SK-MEL-5; [4]): −19% | Percent Growth (SK-MEL-5; [5]): 9% | Percent Growth (SK-MEL-5; [6]): −2% | Percent Growth (SK-MEL-5; [7]): 42% | Percent Growth (SK-MEL-5; [8]): 86% | TGI (HS 578T [1]; HS 578T, 48 hour exposure): 2.80E−07 Molar | Percent Growth (HS 578T [1]; HS 578T, Log10 Concentration −4.3, 48 hour exposure): −54% | Percent Growth (HS 578T [1]; HS 578T, Log10 Concentration −5.3, 48 hour exposure): −73% | Percent Growth (HS 578T [1]; HS 578T, Log10 Concentration −6.3, 48 hour exposure): −41% | Percent Growth (HS 578T [1]; HS 578T, Log10 Concentration −7.3, 48 hour exposure): 122% | Percent Growth (HS 578T [1]; HS 578T, Log10 Concentration −8.3, 48 hour exposure): 130% | TGI (NCI-H23; 48 hour exposure): 5.63E−06 Molar | Percent Growth (NCI-H23; [4]): −25% | Percent Growth (NCI-H23; [5]): 1% | Percent Growth (NCI-H23; [6]): 9% | Percent Growth (NCI-H23; [7]): 56% | Percent Growth (NCI-H23; [8]): 83% | TGI (NCI-H522; 48 hour exposure): 1.47E−07 Molar | Percent Growth (NCI-H522; [4]): −96% | Percent Growth (NCI-H522; [5]): −86% | Percent Growth (NCI-H522; [6]): −66% | Percent Growth (NCI-H522; [7]): 58% | Percent Growth (NCI-H522; [8]): 74%

O=C(Nc1cc(O)ccc1CCCl)c1cc2cc(NC(=O)c3cc4ccccc4o3)ccc2[nH]1 [Compound 1, 4-(2-Chloroethyl)-3-[5-(5-benzofuran-2-carboxamido)indole-2-carboxamido]phenol]
pIC50 ([2]; continuous exposure, read-out: IC50 PC3 Continuous exposure): 5.52 | pIC50 ([2]; read-out: IC50 PC3 1 hour exposure, 1 hour exposure): 4.08 | pIC50 (L1210 leukemia cells): 4.64 | CC50 (MOLT-4): > 100 µM | CC50 (SR): > 100 µM | CC50 (SF-539): 9 µM | Percent Growth (OVCAR-4): 108% and 128% | GI50 (OVCAR-4; OVCAR-4): 2.39 µM | TGI (OVCAR-4; OVCAR-4): 5.06E−06 Molar | Percent Growth (OVCAR-4; OVCAR-4, Log10 Concentration −4.0): −82% | Percent Growth (OVCAR-4; OVCAR-4, Log10 Concentration −5.0): −45% | Percent Growth (OVCAR-4; OVCAR-4, Log10 Concentration −7.0): 115% | CC50 (RXF 393): 4.77 µM | CC50 (UO-31): 20 µM | Percent Growth (DU-145): 53% | GI50 (DU-145; DU-145): 1.12 µM | TGI (DU-145; DU-145): 6.16E−06 Molar | Percent Growth (DU-145; DU-145, Log10 Concentration −4.0): −96% | Percent Growth (DU-145; DU-145, Log10 Concentration −5.0): −14% | Percent Growth (DU-145; DU-145, Log10 Concentration −7.0): 104% | Percent Growth (DU-145; DU-145, Log10 Concentration −8.0): 101% | CC50 (MCF7): 5 µM | GI50 (MDA-MB-231/ATCC; MDA-MB-231/ATCC): 2.43 µM | TGI (MDA-MB-231/ATCC; MDA-MB-231/ATCC): 7.10E−06 Molar | Percent Growth (MDA-MB-231/ATCC; MDA-MB-231/ATCC, Log10 Concentration −4.0): −65% | Percent Growth (MDA-MB-231/ATCC; MDA-MB-231/ATCC, Log10 Concentration −5.0): −16% | Percent Growth (MDA-MB-231/ATCC; MDA-MB-231/ATCC, Log10 Concentration −6.0): 92% | Percent Growth (MDA-MB-231/ATCC; MDA-MB-231/ATCC, Log10 Concentration −7.0): 97% | Percent Growth (MDA-MB-231/ATCC; MDA-MB-231/ATCC, Log10 Concentration −8.0): 94% | CC50 (HS 578T [3]): > 100 µM | CC50 (BT-549): > 100 µM | Percent Growth (SF-295): 92% and 94% | GI50 (SF-295; SF-295): 2.32 µM | TGI (SF-295; SF-295): 6.46E−06 Molar | Percent Growth (SF-295; SF-295, Log10 Concentration −4.0): −96% | Percent Growth (SF-295; SF-295, Log10 Concentration −5.0): −21% | Percent Growth (SF-295; SF-295, Log10 Concentration −6.0): 91% | GI50 (SK-MEL-2): 1.32 µM | TGI (SK-MEL-2): 2.67E−06 Molar | Percent Growth (SK-MEL-2; Log10 Concentration −4.0): −91% | Percent Growth (SK-MEL-2; Log10 Concentration −7.0): 101% | GI50 (SK-MEL-5): 1.73 µM | TGI (SK-MEL-5): 3.34E−06 Molar | Percent Growth (SK-MEL-5; Log10 Concentration −4.0): −97% | Percent Growth (SK-MEL-5; Log10 Concentration −6.0): 92% | Percent Growth (SK-MEL-5; Log10 Concentration −7.0): 104% | Percent Growth (HS 578T [1]): 89% and 77% | GI50 (HS 578T [1]; HS 578T): 11.8 µM | TGI (HS 578T [1]; HS 578T): 3.96E−05 Molar | Percent Growth (HS 578T [1]; HS 578T, Log10 Concentration −4.0): −38% | Percent Growth (HS 578T [1]; HS 578T, Log10 Concentration −5.0): 57% | Percent Growth (HS 578T [1]; HS 578T, Log10 Concentration −7.0): 92% | GI50 (NCI-H23): 1.67 µM | TGI (NCI-H23): 3.38E−06 Molar | Percent Growth (NCI-H23; Log10 Concentration −4.0): −61% | GI50 (NCI-H522): 0.933 µM | TGI (NCI-H522): 3.00E−06 Molar | Percent Growth (NCI-H522; Log10 Concentration −4.0): −80% | Percent Growth (NCI-H522; Log10 Concentration −7.0): 99% | Percent Growth (NCI-H522; Log10 Concentration −8.0): 98%
